Legend:
Rattus norvegicus = organism: Rattus norvegicus; test: cells; type: functional, organism-based; conditions: Brain
GABA B receptor = GABA B receptor (Rattus norvegicus, UniProt O88871+Q9Z0U4)
[1] = molecular target: GABA-A receptor; anion channel
[2] = Reversal potential is determined electrophysiologically against the GABA A receptor; type: functional

Chain of GABA B receptor (Q9Z0U4 whole entry): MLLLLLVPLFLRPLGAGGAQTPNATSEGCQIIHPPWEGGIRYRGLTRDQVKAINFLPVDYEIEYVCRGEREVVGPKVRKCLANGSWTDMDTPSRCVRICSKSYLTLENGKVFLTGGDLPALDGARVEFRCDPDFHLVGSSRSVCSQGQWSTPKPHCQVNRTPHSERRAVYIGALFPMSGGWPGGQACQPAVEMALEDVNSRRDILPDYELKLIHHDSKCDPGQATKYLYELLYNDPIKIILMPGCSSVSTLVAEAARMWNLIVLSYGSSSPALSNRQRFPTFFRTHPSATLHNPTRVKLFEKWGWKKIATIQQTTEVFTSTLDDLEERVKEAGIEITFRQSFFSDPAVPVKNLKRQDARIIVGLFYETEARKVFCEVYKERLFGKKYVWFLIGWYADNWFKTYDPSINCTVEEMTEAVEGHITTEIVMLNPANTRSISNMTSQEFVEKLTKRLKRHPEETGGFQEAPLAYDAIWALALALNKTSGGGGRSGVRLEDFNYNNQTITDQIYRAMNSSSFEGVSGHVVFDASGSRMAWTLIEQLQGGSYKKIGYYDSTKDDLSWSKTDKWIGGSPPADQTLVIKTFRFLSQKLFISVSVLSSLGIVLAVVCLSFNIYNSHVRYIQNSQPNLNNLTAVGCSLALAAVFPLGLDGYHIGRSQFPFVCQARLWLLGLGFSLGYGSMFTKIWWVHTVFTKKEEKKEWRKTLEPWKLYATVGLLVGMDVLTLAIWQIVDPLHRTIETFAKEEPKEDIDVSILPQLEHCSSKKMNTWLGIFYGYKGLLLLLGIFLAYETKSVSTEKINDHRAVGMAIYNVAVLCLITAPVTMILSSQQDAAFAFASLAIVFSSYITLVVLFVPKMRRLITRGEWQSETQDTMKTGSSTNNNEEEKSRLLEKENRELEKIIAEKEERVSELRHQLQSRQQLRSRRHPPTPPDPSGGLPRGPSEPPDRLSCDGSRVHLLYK
Chain of GABA B receptor (O88871 whole entry): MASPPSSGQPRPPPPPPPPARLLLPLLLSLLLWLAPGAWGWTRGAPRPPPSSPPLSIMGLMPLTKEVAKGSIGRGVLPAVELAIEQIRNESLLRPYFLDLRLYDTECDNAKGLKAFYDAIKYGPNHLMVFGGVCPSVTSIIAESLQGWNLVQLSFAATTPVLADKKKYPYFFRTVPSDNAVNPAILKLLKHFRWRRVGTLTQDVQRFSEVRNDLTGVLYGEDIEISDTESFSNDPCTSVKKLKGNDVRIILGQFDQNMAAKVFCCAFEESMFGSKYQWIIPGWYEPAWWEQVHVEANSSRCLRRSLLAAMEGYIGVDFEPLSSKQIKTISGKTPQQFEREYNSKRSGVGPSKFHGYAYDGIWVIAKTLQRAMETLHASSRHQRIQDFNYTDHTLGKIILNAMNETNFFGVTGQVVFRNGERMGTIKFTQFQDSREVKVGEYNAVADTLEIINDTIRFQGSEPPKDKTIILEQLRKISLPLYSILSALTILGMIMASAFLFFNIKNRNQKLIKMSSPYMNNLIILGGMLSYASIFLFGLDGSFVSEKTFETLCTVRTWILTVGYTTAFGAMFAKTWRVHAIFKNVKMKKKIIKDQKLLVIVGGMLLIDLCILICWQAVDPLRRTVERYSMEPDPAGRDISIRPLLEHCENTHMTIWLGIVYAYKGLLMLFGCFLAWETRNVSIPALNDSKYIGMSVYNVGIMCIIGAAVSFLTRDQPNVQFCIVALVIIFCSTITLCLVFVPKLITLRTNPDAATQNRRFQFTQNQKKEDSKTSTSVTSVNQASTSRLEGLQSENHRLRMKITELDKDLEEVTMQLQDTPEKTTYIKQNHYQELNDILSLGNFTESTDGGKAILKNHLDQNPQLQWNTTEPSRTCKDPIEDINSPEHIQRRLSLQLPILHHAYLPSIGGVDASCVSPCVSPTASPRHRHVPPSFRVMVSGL
Description for physchem: PKa values of the compound

O=C(O)CCC1=CCNCC1
IC50 (Rattus norvegicus): > 300 µM | IC50 (GABA B receptor): > 100 µM | IC50 [1]: > 100 µM

Oc1cc(C2CCNCC2)on1
IC50 (Rattus norvegicus): > 300 µM | Reverse potential [2]: 5.9 | pKa (physchem): 5.3

O=C(O)C1=CCNCC1 [ISOGUVACINE]
IC50 (Rattus norvegicus): > 300 µM | Reverse potential [2]: 5.2 | IC50 (GABA B receptor): > 100 µM | IC50 [1]: 0.022 µM

Oc1cc(C2CCNCC2)no1
IC50 (Rattus norvegicus): > 300 µM | Reverse potential [2]: 4.3 | IC50 (GABA B receptor): > 100 µM | IC50 [1]: 26 µM

Oc1cc(C2=CCNCC2)sn1
IC50 (Rattus norvegicus): > 300 µM | Reverse potential [2]: 5.3

Oc1cc(C2CCNCC2)sn1
IC50 (Rattus norvegicus): > 300 µM | Reverse potential [2]: 5.5 | IC50 (GABA B receptor): > 100 µM | IC50 [1]: 1.3 µM | pKa (physchem): 6.9

O=C(O)/C=C/C1=CCNCC1
IC50 (Rattus norvegicus): > 300 µM | IC50 (GABA B receptor): > 100 µM | IC50 [1]: > 100 µM

O=C(O)CCC1CCNCC1
IC50 (Rattus norvegicus): > 300 µM | IC50 (GABA B receptor): > 100 µM | IC50 [1]: > 100 µM

O=c1cc(C2=CCNCC2)s[nH]1
IC50 (GABA B receptor): > 100 µM

O=C(O)/C=C/C1CCNCC1
IC50 (Rattus norvegicus): > 300 µM | IC50 (GABA B receptor): > 100 µM | IC50 [1]: 52 µM

Oc1cc(C2=CCNCC2)on1
IC50 (Rattus norvegicus): > 300 µM | Reverse potential [2]: 5.6 | IC50 (GABA B receptor): > 100 µM | IC50 [1]: 32 µM | pKa (physchem): 5.1

Reference: ChEMBL document CHEMBL1128521, “Partial GABAA receptor agonists. Synthesis and in vitro pharmacology of a series of nonannulated analogs of 4,5,6,7-tetrahydroisoxazolo[5,4-c]pyridin-3-ol” (J Med Chem, 1995)
